According to patent publication US20110098554A1, “Monitoring of convection enhanced drug delivery” (priority 2004, published 2011):

Columns and labels:
[1] = test system: striatum of normal Sprague-Dawley (SD) rats; assay: Cytotoxic tissue response to CED by T2-weighted and diffusion-weighted MRI and histology
Procedure: The resultant solution was infused into the striatum of normal Sprague-Dawley (SD) rats (males, 250-300 grams). T1-weighted MR images were acquired immediately post treatment to assess the extent of convection. Additionally, T2-weighted and diffusion-weighted MR images were acquired 24 hours post treatment to assess the response of the tissue and its correlation to the extent of convection.
Under full anesthesia, a midline scalp incision was made to identify the bregma. A 1 mm burr hole was made in the right region of the skull, 3 mm anterior and 2 mm lateral to the bregma. A 33-gauge needle attached to a 1000 μl syringe (Gastight; Hamilton) was placed stereotactically 5.5 mm deep into the striatum. The infusion was performed using a BASI syringe pump at a rate of 1 μl/min for a duration ranging from […].
In order to obtain a wide range in volumes of distribution, the infusion times were varied between 17 to 60 minutes. 13 rats were treated with Carboplatin (4 mg/ml, 17 minutes infusion). […]
The volume (in cm^3) of the composition distribution was calculated from the T1-weighted MR images acquired immediately post CED treatment. […] The number of pixels in the ROIs was counted and multiplying by the volume of a single pixel. […]

C26 colon cancer tumors = assay: CED of high viscosity toxic infusates in C26 tumors in mice thigh, MRI; format: in vivo, balb-c mice
Procedure: Five balb-c mice, bearing large (over 2 cm in diameter) C26 colon cancer tumors in the thigh, were treated with CED of high viscosity toxic infusates. […] Two mice were treated with a high concentration combination of Ethanol and Cremaphore (150 μl Ethanol and 150 μl Cremaphore diluted with Saline to 1 ml) at infusion rate of 4 μl/min for 105 minutes.
Infusates were mixed with Gd (1:70) prior to treatment. MR images were acquired immediately post treatment to assess the distribution of the drug within the tumor.

malignant gliomas = conditions: first 24-48 hours post intratumoral CED, patients with recurrent malignant brain tumors; cited from earlier work

Row | SMILES | enhancement in diffusion-weighted MR images ([1]; 24 hours post treatment, cases of efficient convection) | histology of en block-resected lesion ([1]; rat, in vivo) | tumor tissue response (T2 MRI 24 hours post treatment) (C26 colon cancer tumors; mouse of FIGS. 16, efficient CED) | tumor tissue response (T2 MRI 24 hours post treatment) (C26 colon cancer tumors; mouse of FIGS. 17, inefficient CED) | water diffusion changes on diffusion-weighted MRI (malignant gliomas)
1 | N.N.O=C([O-])C1(C(=O)[O-])CCC1.[Pt+2] [Carboplatin] | significant enhancement | – | – | – | –
2 | CC(=O)O[C@H]1C(=O)[C@@]2(C)[C@H]([C@H](OC(=O)c3ccccc3)[C@]3(O)C[C@H](OC(=O)[C@H](O)[C@@H](NC(=O)c4ccccc4)c4ccccc4)C(C)=C1C3(C)C)[C@]1(OC(C)=O)CO[C@@H]1C[C@@H]2O [Taxol®, Paclitaxel] | – | Severe damage covering most of the striatum | complete necrosis | no significant change in the tumor | clear changes
